Source: patent publication US10722501B2 (BAYER AKTIENGESELLSCHAFT, priority 2016, dated 2020)

Each compound was assayed against T1, recombinant full-length human prolyl endopeptidase (PREP) (Homo sapiens, UniProt P48147) (assay: Biochemical human prolyl endopeptidase (PREP) assay with fluorescently labelled substrate). Conditions: substrate Z-Gly-Pro-AMC 50 μM, 32° C., 60 min; some as mean values from multiple independent determinations.
T1 construct: To recombinant full-length human prolyl endopeptidase (PREP, R&D-Systems, 4308-SE); purchased R&D-Systems 4308-SE
T1 sequence (P48147 1-710): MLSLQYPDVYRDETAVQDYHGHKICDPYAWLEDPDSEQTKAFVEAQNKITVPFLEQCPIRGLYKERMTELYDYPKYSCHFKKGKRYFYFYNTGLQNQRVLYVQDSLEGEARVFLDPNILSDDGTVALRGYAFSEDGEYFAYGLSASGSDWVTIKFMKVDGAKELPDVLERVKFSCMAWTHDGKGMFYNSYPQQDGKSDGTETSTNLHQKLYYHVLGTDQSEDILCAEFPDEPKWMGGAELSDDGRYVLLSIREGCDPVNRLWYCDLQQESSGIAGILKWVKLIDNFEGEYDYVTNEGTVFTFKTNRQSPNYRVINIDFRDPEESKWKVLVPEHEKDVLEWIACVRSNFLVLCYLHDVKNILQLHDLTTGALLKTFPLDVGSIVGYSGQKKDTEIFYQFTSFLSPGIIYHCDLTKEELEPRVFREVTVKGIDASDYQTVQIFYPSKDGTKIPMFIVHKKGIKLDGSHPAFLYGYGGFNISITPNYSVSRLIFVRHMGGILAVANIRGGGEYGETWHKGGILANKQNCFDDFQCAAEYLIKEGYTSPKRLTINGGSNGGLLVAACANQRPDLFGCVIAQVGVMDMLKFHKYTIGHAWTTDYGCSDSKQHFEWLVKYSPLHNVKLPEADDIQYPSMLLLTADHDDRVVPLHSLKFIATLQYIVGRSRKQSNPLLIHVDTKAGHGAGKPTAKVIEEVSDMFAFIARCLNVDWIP
Method in brief: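 0.4 nM (final, example) recombinant PREP in pH 7.5 Tris buffer with EDTA, GSH, BSA and Brij-35; compounds at 1 nM to 30 μM. Reaction started with 50 μM Z-Gly-Pro-AMC and followed by fluorescence (ex 360/em 465 nm) at 32° C for 60 min. IC50 interpolated from percent activity based on initial slopes.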

SMILES | IC50 [nM]
O=C([C@@H]1CCc2nn(Cc3ccc(C(F)(F)F)nc3)c(=O)n21)N1CCCC1 [Example 50, (5S)-5-(Pyrrolidin-1-ylcarbonyl)-2-{[6-(trifluoromethyl)pyridin-3-yl]methyl}-2,5,6,7-tetrahydro-3H-pyrrolo[2,1-c][1,2,4]triazol-3-one] | 12
Cc1ccc(Cn2nc3n(c2=O)[C@H](C(=O)N2CCC[C@H]2C=O)CCC3)cc1 [Example 196, (2S)-1-{[(5S)-2-(4-Methylbenzyl)-3-oxo-2,3,5,6,7,8-hexahydro[1,2,4]triazolo[4,3-a]pyridin-5-yl]carbonyl}pyrrolidine-2-carbaldehyde] | 0.4
O=C([C@@H]1CCCc2nn(Cc3ncc(C(F)(F)F)cc3Cl)c(=O)n21)N1CC[C@H](F)C1 [Example 405, (5S)-2-{[3-Chloro-5-(trifluoromethyl)pyridin-2-yl]methyl}-5-{[(3S)-3-fluoropyrrolidin-1-yl]carbonyl}-5,6,7,8-tetrahydro[1,2,4]triazolo[4,3-a]pyridin-3(2H)-one] | 0.225
Cc1ccc(C2(Cn3nc4n(c3=O)[C@H](C(=O)N3CCC(F)(F)C3)CCC4)CC2)cc1 [Example 524, (5S)-5-[(3,3-Difluoropyrrolidin-1-yl)carbonyl]-2-{[1-(4-methylphenyl)cyclopropyl]methyl}-5,6,7,8-tetrahydro[1,2,4]triazolo[4,3-a]pyridin-3(2H)-one] | 2.9
CS(=O)(=O)c1ccc(Cn2nc3n(c2=O)C(C(=O)N2CCCC2)CCC3)cc1 (racemic) [Example 6, (5RS)-2-[4-(Methylsulphonyl)benzyl]-5-(pyrrolidin-1-ylcarbonyl)-5,6,7,8-tetrahydro[1,2,4]triazolo[4,3-a]pyridin-3(2H)-one] | 120
Cc1ccc(Cn2nc3n(c2=O)C(C)(C(=O)N2CCCC2)CCC3)cc1 (racemic) [Example 105, 5(RS)-5-Methyl-2-(4-methylbenzyl)-5-(pyrrolidin-1-ylcarbonyl)-5,6,7,8-tetrahydro[1,2,4]triazolo[4,3-a]pyridin-3(2H)-one] | 10.5
COc1ccc(Cn2nc3n(c2=O)C(C(=O)N2CCCC2)CCC3)cc1Cl (racemic) [Example 46, (5RS)-2-(3-Chloro-4-methoxybenzyl)-5-(pyrrolidin-1-ylcarbonyl)-5,6,7,8-tetrahydro[1,2,4]triazolo[4,3-a]pyridin-3(2H)-one] | 0.95
O=C(C1CCCc2nn(Cc3ccc(F)c(C(F)(F)F)c3)c(=O)n21)N1CCCC1 (racemic) [Example 66] | 0.38
N#C[C@@H]1CCCN1C(=O)[C@@H]1CCCc2nn(Cc3ncc(Cl)cc3F)c(=O)n21 [Example 514, (2S)-1-({(5S)-2-[(5-Chloro-3-fluoropyridin-2-yl)methyl]-3-oxo-2,3,5,6,7,8-hexahydro[1,2,4]triazolo[4,3-a]pyridin-5-yl}carbonyl)pyrrolidine-2-carbonitrile] | 0.061
O=C([C@@H]1CCCc2nn(Cc3cc(C(F)(F)F)nc4ccccc34)c(=O)n21)N1CC(F)C1 [Example 494, (5S)-5-[(3-Fluoroazetidin-1-yl)carbonyl]-2-{[2-(trifluoromethyl)quinolin-4-yl]methyl}-5,6,7,8-tetrahydro[1,2,4]triazolo[4,3-a]pyridin-3(2H)-one] | 0.91
O=C(C1C(C(F)(F)F)CCc2nn(Cc3ncc(Cl)cc3F)c(=O)n21)N1CC(F)C1 (racemic) [Example 308, (5RS,6RS)-2-[(5-Chloro-3-fluoropyridin-2-yl)methyl]-5-[(3-fluoroazetidin-1-yl)carbonyl]-6-(trifluoromethyl)-5,6,7,8-tetrahydro[1,2,4]triazolo[4,3-a]pyridin-3(2H)-one] | 125
Cc1cc(Cn2nc3n(c2=O)C(C(=O)N2CCCC2)CCC3)ccn1 (racemic) [Example 15, (5RS)-2-[(2-Methylpyridin-4-yl)methyl]-5-(pyrrolidin-1-ylcarbonyl)-5,6,7,8-tetrahydro[1,2,4]triazolo[4,3-a]pyridin-3(2H)-one] | 8.4
Cn1nc(Cn2nc3n(c2=O)[C@H](C(=O)N2CCC(F)(F)C2)CCC3)c2cccnc21 [Example 413, (5S)-5-[(3,3-Difluoropyrrolidin-1-yl)carbonyl]-2-[(1-methyl-1H-pyrazolo[3,4-b]pyridin-3-yl)methyl]-5,6,7,8-tetrahydro[1,2,4]triazolo[4,3-a]pyridin-3(2H)-one] | 1.9
O=C([C@@H]1CCCc2nn(Cc3ccc(F)cc3F)c(=O)n21)N1C[C@@H](F)[C@@H](F)C1 [Example 489, (5S)-2-(2,4-Difluorobenzyl)-5-{[(3R,4S)-3,4-difluoropyrrolidin-1-yl]carbonyl}-5,6,7,8-tetrahydro[1,2,4]triazolo[4,3-a]pyridin-3(2H)-one] | 0.11
COc1ccc(C2(Cn3nc4n(c3=O)[C@H](C(=O)N3CC(F)C3)CCC4)CC2)cc1 [Example 357, (5S)-5-[(3-Fluoroazetidin-1-yl)carbonyl]-2-{[1-(4-methoxyphenyl)cyclopropyl]methyl}-5,6,7,8-tetrahydro[1,2,4]triazolo[4,3-a]pyridin-3(2H)-one] | 0.43
O=C([C@@H]1CCCc2nn(CC3(c4cccc(Cl)n4)CC3)c(=O)n21)N1CC(F)C1 [Example 348, (5S)-2-{[1-(6-Chloropyridin-2-yl)cyclopropyl]methyl}-5-[(3-fluoroazetidin-1-yl)carbonyl]-5,6,7,8-tetrahydro[1,2,4]triazolo[4,3-a]pyridin-3(2H)-one] | 3.8
COc1ccc(Cn2nc3n(c2=O)C(C(=O)N2CCCC2)CCC3)cn1 (racemic) [Example 92, (5RS)-2-[(6-Methoxypyridin-3-yl)methyl]-5-(pyrrolidin-1-ylcarbonyl)-5,6,7,8-tetrahydro[1,2,4]triazolo[4,3-a]pyridin-3(2H)-one] | 3
CCn1nc(C(F)(F)F)cc1Cn1nc2n(c1=O)[C@H](C(=O)N1CC(F)C1)CCC2 [Example 363, (5S)-2-{[1-Ethyl-3-(trifluoromethyl)-1H-pyrazol-5-yl]methyl}-5-[(3-fluoroazetidin-1-yl)carbonyl]-5,6,7,8-tetrahydro[1,2,4]triazolo[4,3-a]pyridin-3(2H)-one] | 2.3
Cc1ccc(Cn2nc3n(c2=O)C(C(=O)N2CC=CCC2)CCC3)cc1 (racemic) [Example 158, (5RS)-5-(3,6-Dihydropyridin-1 (2H)-ylcarbonyl)-2-(4-methylbenzyl)-5,6,7,8-tetrahydro[1,2,4]triazolo[4,3-a]pyridin-3(2H)-one] | 8.9
O=C(C1CC(C(F)(F)F)Cc2nn(Cc3ccc(C(F)(F)F)nc3)c(=O)n21)N1CC(O)C1 (racemic) [Example 233, (5RS,7RS)-5-[(3-Hydroxyazetidin-1-yl)carbonyl]-7-(trifluoromethyl)-2-{[6-(trifluoromethyl)pyridin-3-yl]methyl}-5,6,7,8-tetrahydro[1,2,4]triazolo[4,3-a]pyridin-3(2H)-one] | 203
O=C([C@@H]1CCCc2nn(Cc3cc(C(F)(F)F)c(Cl)cn3)c(=O)n21)N1CC[C@H](O)C1 [Example 374, (5S)-2-{[5-Chloro-4-(trifluoromethyl)pyridin-2-yl]methyl}-5-{[(3S)-3-hydroxypyrrolidin-1-yl]carbonyl}-5,6,7,8-tetrahydro[1,2,4]triazolo[4,3-a]pyridin-3(2H)-one] | 51.5
